Broadly, the IC50 is the concentration that gives 50% inhibition.

Format in all cases: biochemical
In one assay the target is JAK2-JH1JH2 (Homo sapiens (Human), UniProt O60674). Briefly: Enzymatic inhibition assay (RapidFire HTMS), JAK2. Particulars: 30 μM ATP, 40 μM substrate. A digest of the protocol: (§1)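 Quenched with 0.5% TFA plus internal-standard peptide; phosphorylated product quantified by RapidFire C4 SPE–ESI-MS, 11-point 1:3 or 1:4 dilutions in duplicate.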
Another assay addresses Tyk2-JH1JH2 (Homo sapiens (Human), UniProt P29597, C1142A/C936A). The experiment in a line: Enzymatic inhibition assay (RapidFire HTMS), Tyk2. The following applies: 50 μM ATP, 200 μM substrate. A digest of the protocol:
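Compounds were tested in duplicate as 11-point 1:3 or 1:4 DMSO dilutions (≤0.25% DMSO final) in 20 μL reactions at 25 °C for 90 min, with Tyk2 pre-incubated 30 min with 2 mM ATP. Reactions were quenched with TFA plus internal standard peptide, and phosphorylated product was quantified by RapidFire C4 SPE–ESI MS.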

The target of a further assay is JAK1-JH1JH2 (Homo sapiens (Human), UniProt P23458). Briefly: Enzymatic inhibition assay (RapidFire HTMS), JAK1. The following applies: 12.5 μM ATP, 200 μM substrate; read-out: JAK1-JH2JH1 IC50. A digest of the protocol: as §1
Sequence of JAK1-JH1JH2 (P23458 574-1154): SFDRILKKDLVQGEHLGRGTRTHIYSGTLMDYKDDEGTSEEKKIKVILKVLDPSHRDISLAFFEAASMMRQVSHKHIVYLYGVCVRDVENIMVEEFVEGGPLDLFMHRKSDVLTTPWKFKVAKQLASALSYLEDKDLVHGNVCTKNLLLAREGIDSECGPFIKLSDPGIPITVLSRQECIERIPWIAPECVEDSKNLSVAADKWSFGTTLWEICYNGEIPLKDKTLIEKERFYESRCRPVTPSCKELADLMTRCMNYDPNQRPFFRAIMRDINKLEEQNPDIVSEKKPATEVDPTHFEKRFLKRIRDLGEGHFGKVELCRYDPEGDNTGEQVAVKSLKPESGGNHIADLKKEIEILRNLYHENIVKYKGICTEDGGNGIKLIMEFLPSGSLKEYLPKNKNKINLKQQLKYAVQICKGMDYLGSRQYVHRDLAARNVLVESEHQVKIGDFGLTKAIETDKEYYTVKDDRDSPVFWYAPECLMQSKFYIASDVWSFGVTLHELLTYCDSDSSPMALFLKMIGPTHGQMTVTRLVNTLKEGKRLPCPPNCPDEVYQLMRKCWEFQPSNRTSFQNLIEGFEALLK
In the next assay the target is JAK3-JH1JH2 (Homo sapiens (Human), UniProt P52333). The experiment in a line: Enzymatic inhibition assay (RapidFire HTMS), JAK3. The following applies: 150 μM ATP, 40 μM substrate. The method in brief: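 Compounds tested in duplicate over 11-point 1:3 or 1:4 dilution series; no-enzyme wells as negative control. After 45 min at 25 °C, TFA quench with internal standard, and phosphorylated product quantified by RapidFire–QTrap mass spectrometry relative to the uninhibited reaction.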
Sequence of JAK3-JH1JH2 (P52333 512-1124): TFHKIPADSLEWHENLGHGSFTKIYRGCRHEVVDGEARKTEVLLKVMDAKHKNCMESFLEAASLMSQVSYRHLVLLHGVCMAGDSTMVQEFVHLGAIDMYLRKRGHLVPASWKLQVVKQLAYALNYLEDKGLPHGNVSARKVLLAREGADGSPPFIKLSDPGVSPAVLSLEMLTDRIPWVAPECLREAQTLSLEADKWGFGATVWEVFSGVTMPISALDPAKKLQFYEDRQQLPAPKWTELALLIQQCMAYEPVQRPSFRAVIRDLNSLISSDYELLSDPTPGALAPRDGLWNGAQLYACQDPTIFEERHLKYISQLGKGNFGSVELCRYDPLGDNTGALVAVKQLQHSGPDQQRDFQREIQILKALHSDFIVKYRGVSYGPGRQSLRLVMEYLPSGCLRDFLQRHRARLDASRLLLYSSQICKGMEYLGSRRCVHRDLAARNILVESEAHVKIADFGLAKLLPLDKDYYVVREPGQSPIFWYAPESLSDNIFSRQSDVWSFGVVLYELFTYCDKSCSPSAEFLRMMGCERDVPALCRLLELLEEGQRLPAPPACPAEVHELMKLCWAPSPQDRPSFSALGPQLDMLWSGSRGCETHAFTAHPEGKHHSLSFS

Sequence of JAK2-JH1JH2 (O60674 532-1132): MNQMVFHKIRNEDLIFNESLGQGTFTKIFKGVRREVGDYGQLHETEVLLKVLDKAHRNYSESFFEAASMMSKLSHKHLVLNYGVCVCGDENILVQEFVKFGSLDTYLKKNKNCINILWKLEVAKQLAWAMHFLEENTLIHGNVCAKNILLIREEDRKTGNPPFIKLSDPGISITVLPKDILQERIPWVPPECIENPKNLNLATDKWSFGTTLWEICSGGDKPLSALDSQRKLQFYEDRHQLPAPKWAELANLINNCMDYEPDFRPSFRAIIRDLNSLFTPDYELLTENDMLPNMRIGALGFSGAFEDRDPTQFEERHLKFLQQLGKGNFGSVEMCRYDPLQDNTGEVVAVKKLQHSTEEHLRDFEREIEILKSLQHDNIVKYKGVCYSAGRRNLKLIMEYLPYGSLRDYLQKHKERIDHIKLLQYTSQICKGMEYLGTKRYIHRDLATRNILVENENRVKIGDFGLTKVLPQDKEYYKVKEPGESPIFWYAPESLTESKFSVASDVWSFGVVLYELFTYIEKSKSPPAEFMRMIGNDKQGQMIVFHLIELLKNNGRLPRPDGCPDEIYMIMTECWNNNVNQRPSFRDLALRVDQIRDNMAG
Sequence of Tyk2-JH1JH2 (P29597 580-1182 C936A/C1142A): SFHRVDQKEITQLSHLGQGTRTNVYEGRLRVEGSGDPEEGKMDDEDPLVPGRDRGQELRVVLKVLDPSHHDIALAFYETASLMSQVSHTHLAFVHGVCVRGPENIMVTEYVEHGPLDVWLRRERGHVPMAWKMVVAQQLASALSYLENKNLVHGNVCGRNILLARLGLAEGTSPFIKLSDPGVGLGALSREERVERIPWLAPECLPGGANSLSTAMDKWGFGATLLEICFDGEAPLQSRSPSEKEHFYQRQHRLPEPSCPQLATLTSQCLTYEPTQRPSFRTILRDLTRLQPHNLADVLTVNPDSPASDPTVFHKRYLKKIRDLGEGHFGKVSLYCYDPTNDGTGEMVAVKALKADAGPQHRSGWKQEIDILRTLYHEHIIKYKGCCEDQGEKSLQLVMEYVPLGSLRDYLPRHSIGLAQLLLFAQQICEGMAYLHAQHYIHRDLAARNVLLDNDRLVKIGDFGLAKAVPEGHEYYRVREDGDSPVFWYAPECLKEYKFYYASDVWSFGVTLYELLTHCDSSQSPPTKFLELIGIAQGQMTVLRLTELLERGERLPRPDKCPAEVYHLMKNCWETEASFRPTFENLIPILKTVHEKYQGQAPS

As to `CC1(C)CCC(NC(=O)Cc2nc3cnc4[nH]ccc4c3n2[C@H]2CC[C@H](CC#N)CC2)CC1` [Ex. 65, 2-(1-((1r,4r)-4-(Cyanomethyl)cyclohexyl)-1,6-dihydroimidazo[4,5-d]pyrrolo[2,3-b]pyridin-2-yl)-N-(4,4-dimethylcyclohexyl)acetamide], the IC50 against JAK2-JH1JH2 is 7 nM; against Tyk2-JH1JH2 it was 11.7 nM; at JAK1-JH1JH2, 0.3 nM; against JAK3-JH1JH2, 81.5 nM.
For `N#CC[C@H]1CC[C@H](n2c(CC(=O)N3CCC(N4CCOCC4)CC3)nc3cnc4[nH]ccc4c32)CC1` [Ex. 26, 2-((1r,4r)-4-(2-(2-(4-Morpholinopiperidin-1-yl)-2-oxoethyl)imidazo[4,5-d]pyrrolo[2,3-b]pyridin-1(6H)-yl)cyclohexyl)acetonitrile] the same measures were 6.1 nM, 2.7 nM, 0.1 nM and 106 nM.
In the case of `CC(=O)N1CCC(c2nc3cnc4[nH]ccc4c3n2[C@H]2CC[C@H](CC#N)CC2)CC1` [Ex. 164, 2-((1r,4r)-4-(2-(1-Acetylpiperidin-4-yl)imidazo[4,5-d]pyrrolo[2,3-b]pyridin-1(6H)-yl)cyclohexyl)acetonitrile], the IC50 on JAK2-JH1JH2 was determined as 125 nM; against Tyk2-JH1JH2 it was 174 nM; at JAK1-JH1JH2 it was 1.6 nM; at JAK3-JH1JH2 it was 2150 nM.
As for `CS(=O)(=O)c1ccc(-c2ccc(-c3nc4cnc5[nH]ccc5c4n3[C@H]3CC[C@H](CC#N)CC3)cc2)cc1` [Ex. 91, 2-((1r,4r)-4-(2-(4′-(Methylsulfonyl)-[1,1′-biphenyl]-4-yl)imidazo[4,5-d]pyrrolo[2,3-b]pyridin-1(6H)-yl)cyclohexyl)acetonitrile], the IC50 came to 30.1 nM against JAK2-JH1JH2, 35.5 nM at Tyk2-JH1JH2, 0.4 nM at JAK1-JH1JH2 and 851 nM against JAK3-JH1JH2.
Take `Cc1cc(-c2nc3cnc4[nH]ccc4c3n2[C@H]2CC[C@H](CC#N)CC2)[nH]n1` [Ex. 81, 2-((1r,4r)-4-(2-(3-Methyl-1H-pyrazol-5-yl)imidazo[4,5-d]pyrrolo[2,3-b]pyridin-1(6H)-yl)cyclohexyl)acetonitrile]: the IC50 against JAK2-JH1JH2 amounted to 3.7 nM; at Tyk2-JH1JH2, 6 nM; on JAK1-JH1JH2, 0.4 nM; against JAK3-JH1JH2 it was 117 nM.
For `N#CC[C@H]1CC[C@H](n2c(COC(=O)Nc3ccccc3)nc3cnc4[nH]ccc4c32)CC1` [Ex. 109, (1-((1r,4r)-4-(Cyanomethyl)cyclohexyl)-1,6-dihydroimidazo[4,5-d]pyrrolo[2,3-b]pyridin-2-yl)methyl Phenylcarbamate] the same measures were 7.5 nM, 11.3 nM, 0.6 nM and 135 nM.
On the same counts, the results for `N#CC[C@H]1CC[C@H](n2c(-c3ccc(C#N)cc3)nc3cnc4[nH]ccc4c32)CC1` [Ex. 96, 4-(1-((1r,4r)-4-(Cyanomethyl)cyclohexyl)-1,6-dihydroimidazo[4,5-d]pyrrolo[2,3-b]pyridin-2-yl)benzonitrile] are 33.8 nM, 49.6 nM, 0.5 nM and 460 nM.
On the same counts, the results for `N#CC[C@H]1CC[C@H](n2c(C3CNC3)nc3cnc4[nH]ccc4c32)CC1` [Ex. 159, 2-((1r,4r)-4-(2-(Azetidin-3-yl)imidazo[4,5-d]pyrrolo[2,3-b]pyridin-1(6H)-yl)cyclohexyl)acetonitrile] are 57 nM, 19 nM, 1.6 nM and 1230 nM.
As to `N#CC[C@H]1CC[C@H](n2c(CC(=O)N3CCC(Cc4ccccc4)CC3)nc3cnc4[nH]ccc4c32)CC1` [Ex. 87, 2-((1r,4r)-4-(2-(2-(4-Benzylpiperidin-1-yl)-2-oxoethyl)imidazo[4,5-d]pyrrolo[2,3-b]pyridin-1(6H)-yl)cyclohexyl)acetonitrile], the IC50 was 27.7 nM against JAK2-JH1JH2, 10.3 nM on Tyk2-JH1JH2, below 0.4 nM on JAK1-JH1JH2 and 274 nM against JAK3-JH1JH2.
Turning to `N#CC[C@H]1CC[C@H](n2c(CNC(=N)c3ccccc3)nc3cnc4[nH]ccc4c32)CC1` [Ex. 30, N-((1-((1r,4r)-4-(Cyanomethyl)cyclohexyl)-1,6-dihydroimidazo[4,5-d]pyrrolo[2,3-b]pyridin-2-yl)methyl)benzimidamide], the IC50 was 6.6 nM on JAK2-JH1JH2, 1.6 nM at Tyk2-JH1JH2, 0.2 nM at JAK1-JH1JH2 and 996 nM against JAK3-JH1JH2.
For `CC(C)(O)CNC(=O)Cc1nc2cnc3[nH]cc(Br)c3c2n1[C@H]1CC[C@H](CC#N)CC1` [Ex. 189, 2-(8-bromo-1-((1r,4r)-4-(cyanomethyl)cyclohexyl)-1,6-dihydroimidazo[4,5-d]pyrrolo[2,3-b]pyridin-2-yl)-N-(2-hydroxy-2-methylpropyl)acetamide] the same measures were 42.3 nM, 182 nM, 3.4 nM and 16.6 nM.
For `CC(C)/C(N)=N/OCc1nc2cnc3[nH]ccc3c2n1[C@H]1CC[C@H](CC#N)CC1` [Ex. 150, (Z*)—N-((1-((1r,4r)-4-(Cyanomethyl)cyclohexyl)-1,6-dihydroimidazo[4,5-d]pyrrolo[2,3-b]pyridin-2-yl)methoxy)isobutyrimidamide] the same measures were 10 nM, 34 nM, 1.2 nM and 110 nM.
For `N#CC[C@H]1CC[C@H](n2c(CC(=O)N3CCC[C@H]3CO)nc3cnc4[nH]ccc4c32)CC1` [Ex. 195, 2-((1S,4r)-4-(2-(2-((S)-2-(hydroxymethyl)pyrrolidin-1-yl)-2-oxoethyl)imidazo[4,5-d]pyrrolo[2,3-b]pyridin-1(6H)-yl)cyclohexyl)acetonitrile] the same measures were 33.7 nM, 11 nM, 3.3 nM and 294 nM.
As for `N#CC[C@H]1CC[C@H](n2c(CC(=O)NC34CCC(C(N)=O)(CC3)C4)nc3cnc4[nH]ccc4c32)CC1` [Ex. 54, 4-(2-(1-((1r,4r)-4-(Cyanomethyl)cyclohexyl)-1,6-dihydroimidazo[4,5-d]pyrrolo[2,3-b]pyridin-2-yl)acetamido)bicyclo[2.2.1]heptane-1-carboxamide], the half-maximal inhibitory concentration (IC50) is 2.1 nM at JAK2-JH1JH2, 4.2 nM against Tyk2-JH1JH2, 0.2 nM at JAK1-JH1JH2 and 42 nM against JAK3-JH1JH2.
On the same counts, the results for `CC(C)(C)C/C(=N/O)NCc1nc2cnc3[nH]ccc3c2n1[C@H]1CC[C@H](CC#N)CC1` [Ex. 101] are 29.7 nM, 6.7 nM, 0.5 nM and 182 nM.
On the same counts, the results for `COC1CCN(C(=O)Cc2nc3cnc4[nH]ccc4c3n2[C@H]2CC[C@H](CC#N)CC2)CC1` [Ex. 197, 2-((1r,4r)-4-(2-(2-(4-Methoxypiperidin-1-yl)-2-oxoethyl)imidazo[4,5-d]pyrrolo[2,3-b]pyridin-1(6H)-yl)cyclohexyl)acetonitrile] are 15.5 nM, 6.2 nM, below 4 nM and 132 nM.
Regarding `N#CC[C@H]1CC[C@H](n2c(C(=O)N3CCC(C#N)CC3)nc3cnc4[nH]ccc4c32)CC1` [Ex. 177, 1-(1-((1r,4r)-4-(Cyanomethyl)cyclohexyl)-1,6-dihydroimidazo[4,5-d]pyrrolo[2,3-b]pyridine-2-carbonyl)piperidine-4-carbonitrile], the IC50 against JAK2-JH1JH2 came to 161 nM; against Tyk2-JH1JH2 it was 102 nM; on JAK1-JH1JH2, 2.7 nM; against JAK3-JH1JH2 it was 2370 nM.
On the same counts, the results for `COCCCNC(=O)c1nc2cnc3[nH]ccc3c2n1[C@H]1CC[C@H](CC#N)CC1` [Ex. 173, 1-((1r,4r)-4-(Cyanomethyl)cyclohexyl)-N-(3-methoxypropyl)-1,6-dihydroimidazo[4,5-d]pyrrolo[2,3-b]pyridine-2-carboxamide] are 28 nM, 55.9 nM, 1.3 nM and 732 nM.
For `CC(C)(C)OCc1nc2cnc3[nH]ccc3c2n1[C@H]1CC[C@H](CC#N)CC1` [Ex. 202, 2-((1r,4r)-4-(2-(tert-Butoxymethyl)imidazo[4,5-d]pyrrolo[2,3-b]pyridin-1(6H)-yl)cyclohexyl)acetonitrile] the same measures were 50.9 nM, 50.9 nM, 5 nM and 1040 nM.
Consider `N#CC[C@H]1CC[C@H](n2c(Cn3c(C4CC4)noc3=O)nc3cnc4[nH]ccc4c32)CC1` [Ex. 165, 2-((1r,4r)-4-(2-((3-Cyclopropyl-5-oxo-1,2,4-oxadiazol-4(5H)-yl)methyl)imidazo[4,5-d]pyrrolo[2,3-b]pyridin-1(6H)-yl)cyclohexyl)acetonitrile], for which the IC50 at JAK2-JH1JH2 turned out to be 122 nM; at Tyk2-JH1JH2, 30.5 nM; on JAK1-JH1JH2, 1.7 nM; on JAK3-JH1JH2, 2700 nM.
On the same counts, the results for `N#CC[C@H]1CC[C@H](n2c(Cn3c(-c4ccccc4)noc3=O)nc3cnc4[nH]ccc4c32)CC1` [Ex. 203, 2-((1r,4r)-4-(2-((5-Oxo-3-phenyl-1,2,4-oxadiazol-4(5H)-yl)methyl)imidazo[4,5-d]pyrrolo[2,3-b]pyridin-1(6H)-yl)cyclohexyl)acetonitrile] are 152 nM, 41.5 nM, 8.5 nM and 4680 nM.

Source of the values: patent publication US10981911B2, “Imidazopyrrolopyridine as inhibitors of the JAK family of kinases” (Janssen Pharmaceutica NV, priority 2016, dated 2021).
